The values below come from ChEMBL document CHEMBL1145685, “In vitro and in vivo antiplasmodial activity of cryptolepine and related alkaloids from Cryptolepis sanguinolenta” (J Nat Prod, 1997).

In general, IC50 refers to the concentration that gives 50% inhibition.

For assay [1], the system named is Plasmodium yoelii. In words: Antimalarial activity as reduced parasitaemia against Plasmodium berghei yoelii infected Swiss albino mice (Mus musculus) at 5 mg/kg/day peroral dose for 4 days. The class given is functional. More on the design: scale not given: the % may be the effect or the level left. As to conditions: route oral.
Assay [2] deals with Plasmodium berghei. The assay is described as follows: Antimalarial activity as reduced parasitaemia against Plasmodium berghei infected Swiss albino mice (Mus musculus) at 5 mg/kg/day peroral dose for 4 days. The class given is functional. More on the design: scale not given: the % may be the effect or the level left. As to conditions: route oral.
Assay [3] relates to Plasmodium berghei. The assay is described as follows: Antimalarial activity as reduced parasitaemia against Plasmodium berghei infected Swiss albino mice (Mus musculus) at 50 mg/kg/day peroral dose for 4 days. The class given is functional. As to conditions: route oral. More on the design: scale not given: the % may be the effect or the level left.
Assay [4] relates to Plasmodium falciparum. In words: Antiplasmodial activity against chloroquine-resistant Plasmodium falciparum W2 infected human erythrocytes by [3H]hypoxanthine uptake. The class given is functional, organism-based.
The subject of assay [5] is Plasmodium falciparum. In words: Antiplasmodial activity against Plasmodium falciparum K1 infected human erythrocytes by [3H]hypoxanthine uptake. The class given is functional, organism-based.
Assay [6] concerns Plasmodium falciparum. The assay is described as follows: Antiplasmodial activity against chloroquine-sensitive Plasmodium falciparum D6 infected human erythrocytes by [3H]hypoxanthine uptake. The class given is functional, organism-based.
Assay [7] concerns Plasmodium yoelii. In words: Antimalarial activity as reduced parasitaemia against Plasmodium berghei yoelii infected Swiss albino mice (Mus musculus) at 50 mg/kg/day peroral dose for 4 days. The class given is functional. More on the design: scale not given: the % may be the effect or the level left. The note with it: route oral.

In brackets after ≈: the same amount, converted by molar mass.

As for `CCN(CC)CCCC(C)Nc1ccnc2cc(Cl)ccc12` (stereo unspecified) [CHLOROQUINE], the Activity stood at 1.65% in the assay on Plasmodium yoelii [1] and 2.2% with Plasmodium berghei [2].
In the case of `c1ccc2nc3c(cc2c1)[nH]c1ccccc13` [QUINDOLINE], the Activity in the assay on Plasmodium berghei [3] came to 48.2%; in the assay with Plasmodium yoelii [7], 42.1%. For the same compound, the concentration for half-maximal inhibition (IC50) in the assay with Plasmodium falciparum [4] was found to be 0.108 µg/mL (≈ 0.495 µM); in the assay with Plasmodium falciparum [5] it was 0.087 µg/mL (≈ 0.399 µM); in the assay with Plasmodium falciparum [6], 0.063 µg/mL (≈ 0.289 µM).
With `Cn1c2c3ccccc3nc-2c(O)c2ccccc21` [HYDROXYCRYPTOLEPINE], the Activity in the assay on Plasmodium berghei [3] was 43.2%. Besides, the half-inhibitory concentration (IC50) came to 0.059 µg/mL (≈ 0.238 µM) in the assay on Plasmodium falciparum [4], 0.045 µg/mL (≈ 0.181 µM) with Plasmodium falciparum [5] and 0.031 µg/mL (≈ 0.125 µM) in the assay with Plasmodium falciparum [6].
With `C[n+]1c2ccccc2cc2[n-]c3ccccc3c21.Cl` [CRYPTOLEPINE HYDROCHLORIDE], the Activity in the assay with Plasmodium berghei [3] was 15.6%; in the assay on Plasmodium yoelii [7], 10.8%. Further, the IC50 is 0.052 µg/mL in the assay on Plasmodium falciparum [4], 0.062 µg/mL in the assay with Plasmodium falciparum [5] and 0.041 µg/mL with Plasmodium falciparum [6].
Regarding `C=C[C@H]1CN2CC[C@H]1C[C@H]2[C@H](O)c1ccnc2ccc(OC)cc12` [QUININE], the figures for the IC50 in the assay on Plasmodium falciparum [5] and in the assay with Plasmodium falciparum [6] were 0.0352 µg/mL (≈ 0.108 µM) and 0.0176 µg/mL (≈ 0.0542 µM), respectively.
`OC(c1cc(C(F)(F)F)nc2c(C(F)(F)F)cccc12)C1CCCCN1` (stereo unspecified) [MEFLOQUINE]: the IC50 in the assay on Plasmodium falciparum [4] was found to be 0.0051 µg/mL (≈ 0.0135 µM); in the assay with Plasmodium falciparum [6], 0.0063 µg/mL (≈ 0.0167 µM).
Consider `C[n+]1c2ccccc2cc2[n-]c3ccccc3c21` [CRYPTOLEPINE], for which the Activity in the assay on Plasmodium berghei [3] was determined as 45.4%; with Plasmodium yoelii [7] it was 13.7%. The IC50 came out at 0.041 µg/mL (≈ 0.177 µM) in the assay with Plasmodium falciparum [4], 0.033 µg/mL (≈ 0.142 µM) in the assay on Plasmodium falciparum [5] and 0.027 µg/mL (≈ 0.116 µM) in the assay with Plasmodium falciparum [6].
For the compound `Cn1c2nc3ccccc3c-2cc2ccccc21` [NEOCRYPTOLEPINE], the IC50 in the assay with Plasmodium falciparum [4] stood at 0.065 µg/mL (≈ 0.28 µM); in the assay with Plasmodium falciparum [5], 0.051 µg/mL (≈ 0.22 µM); with Plasmodium falciparum [6], 0.035 µg/mL (≈ 0.151 µM).
In the same order, the values of `C[C@@H]1CC[C@H]2[C@@H](C)C(=O)O[C@@H]3O[C@@]4(C)CC[C@@H]1[C@]32OO4` [ARTEMISININ] are 0.0027 µg/mL (≈ 0.00956 µM), 0.0033 µg/mL (≈ 0.0117 µM) and 0.0025 µg/mL (≈ 0.00885 µM).
